Active and inactive are the calls of the source.
Experiments:
Protein Tat = Protein Tat (Human immunodeficiency virus type 1 group M subtype B (isolate HXB2)(HIV-1), UniProt P04608); format: functional;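 note: tat binding to TAR RNA read out by fluorescence polarization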
[1] = NIH3T3 cell viability loss – ATP luminescence, mouse fibroblasts, counter-screen, dose response (AID 2010); format: functional, cell-based;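 note: cells exposed to compound for about 90 hours before reading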
[2] = target: Fructose-bisphosphate aldolase (Mycobacterium tuberculosis, UniProt P9WQA3); assay: Fluorescence-based biochemical high throughput dose response assay for inhibitors of the fructose-bisphosphate aldolase (FBA) of M. tuberculosis.; format: functional
Chain of Fructose-bisphosphate aldolase (P9WQA3 whole entry): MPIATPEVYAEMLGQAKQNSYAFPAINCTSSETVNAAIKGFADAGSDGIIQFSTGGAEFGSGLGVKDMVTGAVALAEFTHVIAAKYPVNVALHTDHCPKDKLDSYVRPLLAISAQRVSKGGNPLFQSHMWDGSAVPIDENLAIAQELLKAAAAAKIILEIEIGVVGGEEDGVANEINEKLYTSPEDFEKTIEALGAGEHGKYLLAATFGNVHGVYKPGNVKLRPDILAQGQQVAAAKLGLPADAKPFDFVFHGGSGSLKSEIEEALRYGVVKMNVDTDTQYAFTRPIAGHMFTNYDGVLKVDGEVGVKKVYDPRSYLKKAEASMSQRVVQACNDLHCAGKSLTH

[3] = Trypanosoma cruzi growth suppression in host cells – NIH3T3 host cells, beta-gal luminescence, confirmation (AID 2044); format: functional, cell-based;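 note: intracellular parasites grown in NIH/3T3 mouse fibroblasts as host cells; luminescent beta-galactosidase reporter signal from transgenic T. cruzi replicating inside host cells; inhibitors lower the luminescence signal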
[4] = T. cruzi growth inhibition in host cells, dose response, cell-based, plate reader, dry powder, set 2 (AID 652275); format: functional
[5] = general mammalian cell viability loss – inhibitor set, cherry-pick, set 2, cytotoxicity control for miR-122 modulator project, dose response (AID 720697); format: functional, cell-based
[6] = activation of miR-122 Renilla sensor silencing – cell-based, Huh7 psiCHECK-miR122, Renilla luciferase, cherry-picked, dose response (AID 651956); format: functional;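 note: huh7 hepatoma cells stably carrying a psiCHECK-2 miR-122 sensor plasmid; renilla luciferase signal reporting endogenous miR-122 activity after 48 h compound exposure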
[7] = general mammalian cell viability loss – activator set, cherry-pick, cytotoxicity control for miR-122 modulator project, dose response (AID 720690); format: functional, cell-based;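 note: HEK293T human cells scored for general mammalian cytotoxicity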
[8] = anti-trypanosomal activity in BESM host cells – imaging, CA-I/72 strain, bovine embryo skeletal muscle, dry powder, dose response (AID 651885); format: functional, cell-based
[9] = target: T1, Replicative DNA helicase DnaB (Mycobacterium tuberculosis, UniProt P9WMR3); assay: DnaB intein splicing inhibitors, dose response, biochemical, cell-free fluorescence (AID 449749); format: functional
T1 sequence (P9WMR3 whole entry): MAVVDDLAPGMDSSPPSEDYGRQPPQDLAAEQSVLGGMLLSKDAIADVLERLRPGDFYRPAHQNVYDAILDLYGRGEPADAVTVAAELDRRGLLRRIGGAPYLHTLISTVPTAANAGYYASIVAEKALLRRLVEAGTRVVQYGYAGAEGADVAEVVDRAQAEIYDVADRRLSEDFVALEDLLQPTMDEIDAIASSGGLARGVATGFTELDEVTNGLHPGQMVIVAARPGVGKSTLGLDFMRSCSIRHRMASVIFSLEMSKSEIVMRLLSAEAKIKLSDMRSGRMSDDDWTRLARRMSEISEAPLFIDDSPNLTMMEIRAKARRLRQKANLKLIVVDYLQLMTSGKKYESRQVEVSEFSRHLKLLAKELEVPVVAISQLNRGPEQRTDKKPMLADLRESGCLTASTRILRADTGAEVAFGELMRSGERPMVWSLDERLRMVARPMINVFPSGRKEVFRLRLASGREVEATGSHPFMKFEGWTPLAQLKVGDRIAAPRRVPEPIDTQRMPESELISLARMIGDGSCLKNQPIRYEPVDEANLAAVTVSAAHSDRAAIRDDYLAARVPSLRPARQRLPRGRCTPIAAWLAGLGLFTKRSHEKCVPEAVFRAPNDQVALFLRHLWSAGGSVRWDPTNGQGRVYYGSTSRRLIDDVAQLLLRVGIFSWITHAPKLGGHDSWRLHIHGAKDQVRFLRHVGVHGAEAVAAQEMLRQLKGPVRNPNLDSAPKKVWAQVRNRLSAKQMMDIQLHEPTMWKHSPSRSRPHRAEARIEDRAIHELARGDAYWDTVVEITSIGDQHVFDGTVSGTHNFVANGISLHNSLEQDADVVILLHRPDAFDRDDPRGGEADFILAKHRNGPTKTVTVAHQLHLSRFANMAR

Protein RecA = target: T2, Protein RecA (Mycobacterium tuberculosis, UniProt P9WHJ3); assay: Fluorescence Cell-Free Homogeneous Dose Retest to Identify Inhibitors of RecA-Intein Splicing Activity. [Related pubchem assays (depositor defined):AID2097, AID2223, AID489010, AID492950]; format: functional
T2 sequence (P9WHJ3 whole entry): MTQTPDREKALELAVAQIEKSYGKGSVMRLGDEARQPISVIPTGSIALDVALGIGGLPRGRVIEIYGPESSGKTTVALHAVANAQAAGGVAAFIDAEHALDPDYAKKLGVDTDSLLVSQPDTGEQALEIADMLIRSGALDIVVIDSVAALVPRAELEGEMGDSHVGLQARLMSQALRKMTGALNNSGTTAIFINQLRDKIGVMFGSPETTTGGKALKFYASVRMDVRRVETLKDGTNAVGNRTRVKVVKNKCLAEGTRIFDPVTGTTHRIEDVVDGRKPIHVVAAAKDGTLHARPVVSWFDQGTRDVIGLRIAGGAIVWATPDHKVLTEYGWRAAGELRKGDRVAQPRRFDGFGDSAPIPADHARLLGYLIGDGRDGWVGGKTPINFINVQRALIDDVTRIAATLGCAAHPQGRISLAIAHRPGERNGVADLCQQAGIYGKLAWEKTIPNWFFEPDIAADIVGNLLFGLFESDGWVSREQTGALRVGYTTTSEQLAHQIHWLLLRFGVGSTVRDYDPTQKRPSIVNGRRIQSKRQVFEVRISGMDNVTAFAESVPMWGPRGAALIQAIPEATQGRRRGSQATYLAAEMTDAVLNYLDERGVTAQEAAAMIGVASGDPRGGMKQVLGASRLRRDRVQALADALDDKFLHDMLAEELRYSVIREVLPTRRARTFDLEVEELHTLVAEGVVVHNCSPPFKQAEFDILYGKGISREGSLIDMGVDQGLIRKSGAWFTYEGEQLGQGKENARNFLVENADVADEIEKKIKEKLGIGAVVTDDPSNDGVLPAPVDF

[10] = target: Mitochondrial peptide methionine sulfoxide reductase (Bos taurus, UniProt P54149); format: functional;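 note: absorbance read-out, biochemical high-throughput dose-response screen for MsrA inhibitors, confirmatory; recombinant bovine MsrA coupled to E. coli TrxB with NADPH and selenocystamine; potency is for inhibitors of MsrA activity on DMSO substrate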
Chain of Mitochondrial peptide methionine sulfoxide reductase (P54149 whole entry): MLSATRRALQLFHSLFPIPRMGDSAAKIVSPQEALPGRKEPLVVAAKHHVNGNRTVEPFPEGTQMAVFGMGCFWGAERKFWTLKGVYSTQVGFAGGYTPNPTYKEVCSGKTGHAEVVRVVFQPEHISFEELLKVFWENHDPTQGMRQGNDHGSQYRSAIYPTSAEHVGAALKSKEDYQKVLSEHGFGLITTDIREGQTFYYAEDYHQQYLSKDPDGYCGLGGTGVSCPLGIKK

[11] = target: T3, Apoptotic protease-activating factor 1 (Homo sapiens, UniProt O14727); format: functional
T3 sequence (O14727 whole entry): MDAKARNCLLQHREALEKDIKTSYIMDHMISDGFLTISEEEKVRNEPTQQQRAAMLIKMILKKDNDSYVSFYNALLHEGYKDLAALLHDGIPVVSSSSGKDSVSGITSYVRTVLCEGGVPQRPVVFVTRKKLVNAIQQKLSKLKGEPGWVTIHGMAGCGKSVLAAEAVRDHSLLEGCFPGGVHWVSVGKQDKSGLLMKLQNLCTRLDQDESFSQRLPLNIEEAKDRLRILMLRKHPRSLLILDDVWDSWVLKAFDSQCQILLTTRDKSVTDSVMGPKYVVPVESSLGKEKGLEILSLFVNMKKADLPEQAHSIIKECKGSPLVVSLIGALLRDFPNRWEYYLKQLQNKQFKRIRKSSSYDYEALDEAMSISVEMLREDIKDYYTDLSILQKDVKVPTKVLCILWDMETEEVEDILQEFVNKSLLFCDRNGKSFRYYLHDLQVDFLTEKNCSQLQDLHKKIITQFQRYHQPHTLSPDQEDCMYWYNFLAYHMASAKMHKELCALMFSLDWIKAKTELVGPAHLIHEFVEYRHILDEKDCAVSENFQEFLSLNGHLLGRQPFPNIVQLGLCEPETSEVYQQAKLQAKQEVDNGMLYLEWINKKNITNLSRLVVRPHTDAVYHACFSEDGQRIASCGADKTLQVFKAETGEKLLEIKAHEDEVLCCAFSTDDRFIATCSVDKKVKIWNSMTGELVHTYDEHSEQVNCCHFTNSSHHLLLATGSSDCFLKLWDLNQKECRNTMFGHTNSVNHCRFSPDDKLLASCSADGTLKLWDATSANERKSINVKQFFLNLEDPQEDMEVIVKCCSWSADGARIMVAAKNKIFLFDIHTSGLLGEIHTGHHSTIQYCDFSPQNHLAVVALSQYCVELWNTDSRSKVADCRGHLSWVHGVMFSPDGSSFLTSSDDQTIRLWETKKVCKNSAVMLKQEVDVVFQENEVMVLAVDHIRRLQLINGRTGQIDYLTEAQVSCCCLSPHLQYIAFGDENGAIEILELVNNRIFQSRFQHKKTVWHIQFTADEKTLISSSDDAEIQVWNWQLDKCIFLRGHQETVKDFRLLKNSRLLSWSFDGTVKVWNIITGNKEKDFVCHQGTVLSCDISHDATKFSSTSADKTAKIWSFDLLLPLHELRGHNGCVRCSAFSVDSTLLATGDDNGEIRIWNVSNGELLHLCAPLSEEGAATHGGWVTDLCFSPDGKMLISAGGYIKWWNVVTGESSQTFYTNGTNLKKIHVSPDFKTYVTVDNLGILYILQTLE

[12] = target: Tyrosyl-DNA phosphodiesterase 2 (Homo sapiens, UniProt O95551); assay: potency against TDP2 phosphodiesterase activity – biochemical, epi absorbance, IC50, dose response (AID 743297)
Chain of Tyrosyl-DNA phosphodiesterase 2 (O95551 whole entry): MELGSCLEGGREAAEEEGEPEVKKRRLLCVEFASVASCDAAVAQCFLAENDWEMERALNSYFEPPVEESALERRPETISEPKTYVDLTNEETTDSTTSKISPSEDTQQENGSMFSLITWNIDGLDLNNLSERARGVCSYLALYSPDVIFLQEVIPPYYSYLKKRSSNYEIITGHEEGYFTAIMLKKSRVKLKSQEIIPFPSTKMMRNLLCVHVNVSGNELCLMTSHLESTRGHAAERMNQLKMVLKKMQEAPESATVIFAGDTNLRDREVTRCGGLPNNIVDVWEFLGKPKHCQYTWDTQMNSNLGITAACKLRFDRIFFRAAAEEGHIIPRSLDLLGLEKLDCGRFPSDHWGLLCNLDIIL

Chain of Protein Tat (P04608 whole entry): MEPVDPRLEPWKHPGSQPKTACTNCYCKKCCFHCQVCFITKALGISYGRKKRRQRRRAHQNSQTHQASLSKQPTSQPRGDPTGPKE

With `Cc1c(C(=O)Nc2ccc(Cl)cc2)c2ccccn2c1CCc1ccncc1` the IC50 (Protein Tat) was > 100 µM (active), the EC50 [1] was > 30 µM (not active) and the IC50 [2] was 0.468 µM (active). The EC50 [3] was 2.16 µM (active).
With `CC(c1ccc(Cl)cc1)N1CC2(C1)CN(C(C)C)C(=O)c1cccc(NC(=O)c3ccncc3)c1O2` (centres undefined) the AC50 [4] was 0.556 µM (active).
With `CNC(=O)C[C@H]1CC[C@H]2[C@@H](COc3ccc(NC(=O)C4CC4)cc3C(=O)N2C)O1` the AC50 [5] was 2.59 µM (active).
In the case of `C[C@@H]1CN([C@H](C)CO)S(=O)(=O)c2ccc(C#Cc3ccncc3)cc2O[C@@H]1CN(C)C(=O)Nc1ccc2c(c1)OCO2`, the AC50 [6] was 4.77 µM (active) and the AC50 [7] was 29.8 µM (active).
With `CC(C)N1C[C@H](C)[C@@H](CN(C)C(=O)OC(C)(C)C)Oc2c(C(=O)O)cccc2C1=O` the IC50 [8] was > 20 µM (inactive).
In the case of `O=C(O)c1ccc(NC2=C(n3nnc4ccccc43)C(=O)c3ccccc3C2=O)cc1`, the AC50 [9] was 4.36 µM (active), the EC50 (Protein RecA) was 3 µM (active) and the IC50 [10] was 11.6 µM (inactive). The IC50 [11] was 7.8 µM (active) and the IC50 [12] was 40.1 µM (inactive).
